Measured values taken from patent publication US20110098296A1, “Thiazole And Oxazole Kinase Inhibitors” (priority 2007, published 2011).

Legend:
[1] = target: T1, ErbB2 (Homo sapiens, UniProt P04626); test: ErbB-2 substrate phosphorylation assay (HTRF); format: biochemical; conditions: Method (A): Enzyme Mix incubated with compound at 20° C. for 1 hr, reaction started by adding Substrate Mix
T1 construct: made in house; host or cells: baculovirus expression system
In short: (§1)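 Baculovirus-expressed kinase (0.8 nM EGFR or 10 nM ErbB2 in enzyme mix) with Peptide C 0.8 μM and ATP 20 μM (substrate-mix levels), MOPS pH 7.5, MnCl2; 90 min, 20 °C, HTRF anti-phosphotyrosine. Method A adds 1 h enzyme–compound preincubation; B none. pIC50, final compound 0.00027–47.6 μM.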

[2] = target: T2, EGFR (Homo sapiens, UniProt P00533); test: EGFR substrate phosphorylation assay (HTRF); format: biochemical; conditions: Method (A): Enzyme Mix incubated with compound at 20° C. for 1 hr, reaction started by adding Substrate Mix
T2 construct: made in house; host or cells: baculovirus expression system
In short: as §1

[3] = target: B-Raf (Homo sapiens, UniProt P15056); test: B-Raf Accelerated MEK ATPase assay (BRAMA); format: biochemical; conditions: Method (A): BRAMA, kinetic read
Method: Compounds of the present invention were tested for B-Raf protein serine kinase inhibitory activity in a B-Raf Accelerated MEK ATPase assay (BRAMA). The BRAMA assay is a high sensitivity assay which measures an intrinsic MEK-mediated ATP hydrolysis uncoupled from downstream ERK phosphorylation by coupling the formation of ADP to NADH oxidation through the enzymes pyruvate kinase and lactate dehydrogenase. When ADP production is initiated by addition of catalytic amounts of an activated Raf enzyme and non-phosphorylated MEK, one observes robust ADP production concomitant with Raf-mediated phosphorylation of MEK.
Method A: Specific details of the assay are disclosed in: C. Rominger, M. Schaber, E. May. Assay for B-Raf Activity Based on Intrinsic MEK ATPase Activity. Statutory Invention Registration Ser. No. 11/084,993 (March, 2005). Method B: The method is the same as method A, but includes the following changes: 1) the assay was performed with a final MEK concentration of 150 nM and 2) the assay was read as single end point instead of a kinetic read.

[4] = system: Colo205 tumor cells; test: Method B: CellTiter-Glo Growth Inhibition Assay, Colo205; format: cell-based; conditions: Homo sapiens, COLO 205, 72 h, 3 days
In short: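 Cells plated (BT474 3,000, HN5 500, Colo205 3,000 per well) in RPMI or DMEM with 10% FBS; compounds added next day, final DMSO 0.3%, then 3 days at 37° C, 5% CO2. Viability by CellTiter-Glo luminescence; percent inhibition versus vehicle, IC50 interpolated by nonlinear regression.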

T1 sequence (P04626 23-1255): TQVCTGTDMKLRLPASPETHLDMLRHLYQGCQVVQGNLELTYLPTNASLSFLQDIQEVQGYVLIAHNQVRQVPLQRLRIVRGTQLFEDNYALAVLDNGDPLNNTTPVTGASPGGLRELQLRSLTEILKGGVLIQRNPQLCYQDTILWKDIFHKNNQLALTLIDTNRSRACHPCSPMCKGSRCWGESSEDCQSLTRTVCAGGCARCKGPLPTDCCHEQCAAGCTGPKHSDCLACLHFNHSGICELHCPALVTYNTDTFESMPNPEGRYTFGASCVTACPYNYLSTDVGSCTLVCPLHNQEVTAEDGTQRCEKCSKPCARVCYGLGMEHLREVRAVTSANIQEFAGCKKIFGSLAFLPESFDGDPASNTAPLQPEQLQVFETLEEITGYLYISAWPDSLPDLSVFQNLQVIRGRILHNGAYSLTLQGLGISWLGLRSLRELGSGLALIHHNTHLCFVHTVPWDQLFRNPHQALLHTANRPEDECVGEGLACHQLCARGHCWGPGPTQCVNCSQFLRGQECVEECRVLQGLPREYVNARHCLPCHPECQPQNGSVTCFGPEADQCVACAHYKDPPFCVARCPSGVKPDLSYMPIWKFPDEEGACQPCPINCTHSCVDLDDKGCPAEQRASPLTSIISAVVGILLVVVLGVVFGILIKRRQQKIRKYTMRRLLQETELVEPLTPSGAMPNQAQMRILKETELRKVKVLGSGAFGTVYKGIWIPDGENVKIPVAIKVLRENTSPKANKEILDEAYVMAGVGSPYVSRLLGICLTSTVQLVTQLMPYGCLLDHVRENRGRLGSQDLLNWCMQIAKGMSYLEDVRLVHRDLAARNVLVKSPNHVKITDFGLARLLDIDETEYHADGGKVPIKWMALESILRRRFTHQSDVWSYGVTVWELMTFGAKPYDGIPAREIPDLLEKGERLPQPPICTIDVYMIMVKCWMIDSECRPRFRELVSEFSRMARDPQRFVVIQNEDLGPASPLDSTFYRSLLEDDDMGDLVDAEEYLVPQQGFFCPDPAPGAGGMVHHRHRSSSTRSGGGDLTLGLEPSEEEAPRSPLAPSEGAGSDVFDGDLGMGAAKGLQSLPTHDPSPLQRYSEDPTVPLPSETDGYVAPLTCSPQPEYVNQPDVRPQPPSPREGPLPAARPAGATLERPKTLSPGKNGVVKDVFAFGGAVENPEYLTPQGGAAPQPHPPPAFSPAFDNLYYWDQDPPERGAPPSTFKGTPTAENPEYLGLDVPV
T2 sequence (P00533 25-1210): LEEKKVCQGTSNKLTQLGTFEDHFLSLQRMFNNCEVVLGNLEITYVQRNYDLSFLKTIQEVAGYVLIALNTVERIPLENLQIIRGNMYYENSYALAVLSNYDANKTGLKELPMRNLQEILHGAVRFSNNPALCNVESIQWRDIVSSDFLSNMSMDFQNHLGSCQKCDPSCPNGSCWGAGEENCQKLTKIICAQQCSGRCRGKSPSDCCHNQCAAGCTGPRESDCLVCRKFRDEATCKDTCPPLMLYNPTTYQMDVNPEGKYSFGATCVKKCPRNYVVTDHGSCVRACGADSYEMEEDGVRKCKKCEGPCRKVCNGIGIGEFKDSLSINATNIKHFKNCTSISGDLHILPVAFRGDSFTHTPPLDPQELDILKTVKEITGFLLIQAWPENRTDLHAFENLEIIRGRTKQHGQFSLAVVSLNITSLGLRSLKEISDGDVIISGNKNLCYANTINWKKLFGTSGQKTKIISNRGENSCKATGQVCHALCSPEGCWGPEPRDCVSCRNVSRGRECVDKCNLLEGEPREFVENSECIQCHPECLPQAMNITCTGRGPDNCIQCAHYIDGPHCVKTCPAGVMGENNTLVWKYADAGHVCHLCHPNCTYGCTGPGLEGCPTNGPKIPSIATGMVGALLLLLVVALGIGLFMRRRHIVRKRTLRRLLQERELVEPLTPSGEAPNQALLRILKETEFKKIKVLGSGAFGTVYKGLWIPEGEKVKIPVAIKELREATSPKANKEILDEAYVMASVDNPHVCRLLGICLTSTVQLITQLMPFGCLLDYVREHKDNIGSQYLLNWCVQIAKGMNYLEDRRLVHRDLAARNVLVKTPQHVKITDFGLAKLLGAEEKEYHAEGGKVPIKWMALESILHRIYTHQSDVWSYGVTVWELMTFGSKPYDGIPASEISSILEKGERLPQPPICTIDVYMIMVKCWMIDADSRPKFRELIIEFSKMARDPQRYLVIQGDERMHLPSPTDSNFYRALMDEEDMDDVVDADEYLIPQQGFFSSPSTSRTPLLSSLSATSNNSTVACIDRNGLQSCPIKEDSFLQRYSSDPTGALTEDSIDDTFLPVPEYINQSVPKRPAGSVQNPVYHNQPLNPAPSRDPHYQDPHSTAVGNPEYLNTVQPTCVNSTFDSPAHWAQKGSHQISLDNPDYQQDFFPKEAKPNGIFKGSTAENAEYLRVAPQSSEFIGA
Sequence of B-Raf (P15056 whole entry): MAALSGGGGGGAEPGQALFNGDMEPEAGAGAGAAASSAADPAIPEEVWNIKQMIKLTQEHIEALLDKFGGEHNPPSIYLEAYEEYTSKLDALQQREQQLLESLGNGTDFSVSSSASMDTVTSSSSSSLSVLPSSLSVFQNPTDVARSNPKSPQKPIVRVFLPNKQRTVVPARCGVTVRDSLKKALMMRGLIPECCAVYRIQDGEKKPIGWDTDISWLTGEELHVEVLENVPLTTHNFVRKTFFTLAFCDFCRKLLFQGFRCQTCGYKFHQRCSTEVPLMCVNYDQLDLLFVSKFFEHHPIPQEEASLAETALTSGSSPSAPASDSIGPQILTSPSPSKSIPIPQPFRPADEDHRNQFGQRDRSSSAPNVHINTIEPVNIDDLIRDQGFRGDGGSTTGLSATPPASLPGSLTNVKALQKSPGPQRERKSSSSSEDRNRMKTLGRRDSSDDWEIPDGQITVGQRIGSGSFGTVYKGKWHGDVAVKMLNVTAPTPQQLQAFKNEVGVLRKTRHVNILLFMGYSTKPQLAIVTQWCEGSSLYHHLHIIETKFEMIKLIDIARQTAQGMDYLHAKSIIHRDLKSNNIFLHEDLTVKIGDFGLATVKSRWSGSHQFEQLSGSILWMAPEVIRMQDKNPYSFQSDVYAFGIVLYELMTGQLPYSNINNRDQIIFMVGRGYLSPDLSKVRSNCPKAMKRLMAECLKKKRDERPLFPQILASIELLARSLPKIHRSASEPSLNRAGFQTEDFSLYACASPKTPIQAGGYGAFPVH

| SMILES | IC50 [1] [nM] | IC50 [2] [nM] | IC50 [3] [nM] | IC50 [4] [nM] |
| --- | --- | --- | --- | --- |
| COc1cc(Nc2nccc(-c3sc(N)nc3-c3cccc(NC(=O)c4c(F)cccc4F)c3)n2)cc(OC)c1OC [Example 16, N-[3-(2-Amino-5-{2-[(3,4,5-trimethoxyphenyl)amino]pyrimidiN-4-yl}-1,3-thiazol-4-yl)phenyl]-2,6-difluorobenzamide] | < 100 | < 100 | – | – |
| Cc1cc(-c2sc(N)nc2-c2cccc(NC(=O)c3c(F)cccc3F)c2)nc(Nc2cccc(F)c2)n1 [Example 48, N-[3-(2-Amino-5-{2-[(3-fluorophenyl)amino]-6-methyl-4-pyrimidinyl}-1,3-thiazol-4-yl)phenyl]-2,6-difluorobenzamide] | > 1000 | 100 to 1000 | > 1000 | – |
| CCNc1nc(-c2cccc(NC(=O)C3CC3)c2)c(-c2ccnc(Nc3ccc(OCCN4CCCC4)c(Cl)c3)n2)s1 [Example 63, N-{3-[5-{2-[(3-Chloro-4-{[2-(1-pyrrolidinyl)ethyl]oxy}phenyl)amino]-4-pyrimidinyl}-2-(ethylamino)-1,3-thiazol-4-yl]phenyl}cyclopropanecarboxamide] | < 100 | < 100 | – | 100 to 1000 |
| Nc1nc(-c2cccc(C(=O)Nc3c(F)cccc3F)c2)c(-c2ccnc(Nc3cccc(CN4CCCC4)c3)n2)s1 [Example 77, 3-[2-Amino-5-(2-{[3-(1-pyrrolidinylmethyl)phenyl]amino}-4-pyrimidinyl)-1,3-thiazol-4-yl]-N-(2,6-difluorophenyl)benzamide] | < 100 | < 100 | – | < 100 |
| Cc1nc(-c2cccc(NC(=O)c3c(F)cccc3F)c2)c(-c2ccnc(Nc3ccc(OCCN(C)C)c(Cl)c3)n2)s1 [Example 103, N-[3-(5-{2-[(3-Chloro-4-{[2-(dimethylamino)ethyl]oxy}phenyl)amino]-4-pyrimidinyl}-2-methyl-1,3-thiazol-4-yl)phenyl]-2,6-difluorobenzamide] | < 100 | < 100 | – | > 1000 |
| CCc1nc(-c2cccc(NC(=O)c3c(F)cccc3F)c2)c(-c2ccnc(Nc3cccc(CN4CCCC4)c3)n2)s1 [Example 115, N-{3-[2-Ethyl-5-(2-{[3-(1-pyrrolidinylmethyl)phenyl]amino}-4-pyrimidinyl)-1,3-thiazol-4-yl]phenyl}-2,6-difluorobenzamide] | < 100 | < 100 | 100 to 1000 | – |

Next, values leading:

| IC50 [1] [nM] | IC50 [2] [nM] | IC50 [3] [nM] | IC50 [4] [nM] | SMILES |
| --- | --- | --- | --- | --- |
| < 100 | < 100 | – | – | COc1ccc(Nc2nccc(-c3sc(N)nc3-c3cccc(NC(=O)c4c(F)cccc4F)c3)n2)cc1N1CCNCC1 [Example 18, N-[3-(2-Amino-5-{2-[(4-methoxy-3-piperaziN-1-ylphenyl)amino]pyrimidiN-4-yl}-1,3-thiazol-4-yl)phenyl]-2,6-difluorobenzamide] |
| < 100 | < 100 | 100 to 1000 | – | Cc1nc(-c2cccc(NC(=O)c3c(F)cccc3F)c2)c(-c2ccnc(Nc3ccc(OC4CCN(C(=O)OCc5ccccc5)CC4)c(F)c3)n2)s1 [Example 106] |
| < 100 | < 100 | – | > 1000 | Cc1nc(-c2cccc(NC(=O)c3cc(F)ccc3F)c2)c(-c2ccnc(Nc3ccc(OCCN(C)C)c(Cl)c3)n2)o1 [Example 142] |
